According to US11279687B2, “Compounds and compositions for the inhibition of NAMPT” (Valo Health, Inc., priority 2010, dated 2022):

Legend:
[1] = biological target: NAMPT (Homo sapiens (Human), UniProt P43490); assay: NAMPT biochemical inhibition assay (NMN quantified by mass spectrometry); settings: NAMPT biochemical inhibition; read-out: Biochem IC50
[2] = tested on: A2780 cells; assay: In-vitro cell proliferation assay (SRB), A2780 cells; assay type: cell-based; settings: Homo sapiens, A2780, 72 h, A2780 cells, 72 hours, SRB; read-out: A2780 IC50;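 also: viable cell number read as SRB absorbance, background from media-only wells subtracted, IC50 interpolated from percent inhibition at two bracketing compound concentrations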

Chain of NAMPT (P43490 whole entry): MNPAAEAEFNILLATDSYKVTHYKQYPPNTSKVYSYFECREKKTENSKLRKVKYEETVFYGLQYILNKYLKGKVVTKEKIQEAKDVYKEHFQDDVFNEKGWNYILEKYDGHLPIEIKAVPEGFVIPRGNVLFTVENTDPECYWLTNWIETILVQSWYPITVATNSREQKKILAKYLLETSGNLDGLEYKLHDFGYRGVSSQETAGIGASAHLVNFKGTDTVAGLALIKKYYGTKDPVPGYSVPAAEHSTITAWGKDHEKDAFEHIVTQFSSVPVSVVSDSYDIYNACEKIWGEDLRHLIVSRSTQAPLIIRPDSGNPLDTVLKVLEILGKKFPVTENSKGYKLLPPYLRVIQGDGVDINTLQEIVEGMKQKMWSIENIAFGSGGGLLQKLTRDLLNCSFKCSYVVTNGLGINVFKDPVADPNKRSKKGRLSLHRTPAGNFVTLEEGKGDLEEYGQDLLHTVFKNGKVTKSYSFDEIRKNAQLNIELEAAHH

Structure (SMILES)	IC50 [1] [µM]	IC50 [2] [µM]
COc1ccc(Cl)cc1N1CCN(S(=O)(=O)c2ccc(NC(=O)NCc3cccnc3)cc2)CC1 [3-{4-[4-(5-chloro-2-methoxyphenyl)piperazine-1-sulfonyl]phenyl}-1-(pyridin-3-ylmethyl)urea]	0.002	0.05
Cc1ccc(Cl)cc1N1CCN(S(=O)(=O)c2ccc(NC(=O)NCc3cccnc3)cc2)CC1 [3-{4-[4-(5-chloro-2-methylphenyl)piperazine-1-sulfonyl]phenyl}-1-(pyridin-3-ylmethyl)urea]	0.002	0.162
CCN(CC)C1CCN(S(=O)(=O)c2ccc(NC(=O)NCc3cccnc3)cc2)CC1 [3-{4-[4-(diethylamino)piperidine-1-sulfonyl]phenyl}-1-(pyridin-3-ylmethyl)urea]	0.005	0.014
CCCN(CCC)C1CCN(S(=O)(=O)c2ccc(NC(=O)NCc3cccnc3)cc2)CC1 [3-{4-[4-(dipropylamino)piperidine-1-sulfonyl]phenyl}-1-(pyridin-3-ylmethyl)urea]	0.004	0.003
COCC1CCN(S(=O)(=O)c2ccc(NC(=O)NCc3cccnc3)cc2)CC1 [3-{4-[4-(methoxymethyl)piperidine-1-sulfonyl]phenyl}-1-(pyridin-3-ylmethyl)urea]	0.022	0.13
CN(C)c1ccc(S(=O)(=O)c2ccc(NC(=O)NCc3cccnc3)cc2)cn1 [3-{4-[6-(dimethylamino)pyridine-3-sulfonyl]phenyl}-1-(pyridin-3-ylmethyl)urea]	0.003	0.0749
CC(C)(C)CNS(=O)(=O)c1ccc(NC(=O)NCc2cccnc2)cc1 [3-{4-[(2,2-dimethylpropyl)sulfamoyl]phenyl}-1-(pyridin-3-ylmethyl)urea]	0.017	0.159
COc1ccc(S(=O)(=O)c2ccc(NC(=O)NCc3cccnc3)cc2)c(OC)c1 [3-{4-[(2,4-dimethoxybenzene)sulfonyl]phenyl}-1-(pyridin-3-ylmethyl)urea]	0.005	0.047

Second part, the compound after the results:

IC50 [1] [µM]	IC50 [2] [µM]	Structure (SMILES)
0.001	0.446	O=C(NCc1cccnc1)Nc1ccc(S(=O)(=O)c2cccc(Cl)c2Cl)cc1 [3-{4-[(2,3-dichlorobenzene)sulfonyl]phenyl}-1-(pyridin-3-ylmethyl)urea]
0.002	0.03	O=C(NCc1cccnc1)Nc1ccc(S(=O)(=O)Nc2cccc(Cl)c2Cl)cc1 [3-{4-[(2,3-dichlorophenyl)sulfamoyl]phenyl}-1-(pyridin-3-ylmethyl)urea]
0.004	0.546	O=C(NCc1cccnc1)Nc1ccc(S(=O)(=O)c2cccc(F)c2F)cc1 [3-{4-[(2,3-difluorobenzene)sulfonyl]phenyl}-1-(pyridin-3-ylmethyl)urea]
0.005	0.298	Cc1cccc(S(=O)(=O)c2ccc(NC(=O)NCc3cccnc3)cc2)c1C [3-{4-[(2,3-dimethylbenzene)sulfonyl]phenyl}-1-(pyridin-3-ylmethyl)urea]
0.0009	0.074	Cc1cccc(NS(=O)(=O)c2ccc(NC(=O)NCc3cccnc3)cc2)c1C [3-{4-[(2,3-dimethylphenyl)sulfamoyl]phenyl}-1-(pyridin-3-ylmethyl)urea]
0.004	0.827	O=C(NCc1cccnc1)Nc1ccc(S(=O)(=O)c2ccc(Cl)cc2Cl)cc1 [3-{4-[(2,4-dichlorobenzene)sulfonyl]phenyl}-1-(pyridin-3-ylmethyl)urea]
0.003	0.189	O=C(NCc1cccnc1)Nc1ccc(S(=O)(=O)Nc2ccc(Cl)cc2Cl)cc1 [3-{4-[(2,4-dichlorophenyl)sulfamoyl]phenyl]-1-(pyridin-3-ylmethyl)urea]
0.001	0.344	O=C(NCc1cccnc1)Nc1ccc(S(=O)(=O)c2ccc(F)cc2F)cc1 [3-{4-[(2,4-difluorobenzene)sulfonyl]phenyl}-1-(pyridin-3-ylmethyl)urea]
0.003	0.109	COc1ccc(NS(=O)(=O)c2ccc(NC(=O)NCc3cccnc3)cc2)c(OC)c1 [3-{4-[(2,4-dimethoxyphenyl)sulfamoyl]phenyl}-1-(pyridin-3-ylmethyl)urea]
